According to patent US10564167B2, “Method for detecting cells” (FUNDACIÓ INSTITUT DE CIÈNCIES FOTÒNIQUES, priority 2014, dated 2020):

How the values were obtained:
Format in all cases: cell-based
[1] = tested on: human fibroblast nuclei (hFb); test: Multi-color STORM imaging of H2B and H1 co-localization in hFbs and TSA-hFbs; details: TSA-hFbs (hFbs 61±11%, p=0.028)
Procedure: (§1) Human fibroblasts (hFb) (BJ, Skin Fibroblast, American Type Culture Collection, ATCC® CRL-2522™) were cultured in DMEM supplemented with 10% FBS, 1× Non-essential AA, 1× GlutaMax and 1× penicillin/streptomycin. Human fibroblasts were treated with 300 nM of TSA (TricostatinA, Sigma-Aldrich) solution (TSA-hFbs) in complete growth medium for 24 hours before imaging experiments. Human fibroblasts expressing the Histone H2B-SNAP fusion protein were obtained after drug selection of nucleofected cells with the pSNAP-H2B Plasmid (N91795, New England BioLabs) using the Amaxa Human Dermal Fibroblast Nucleofector Kit (Lonza, VPD-1001).
(§2) For the imaging experiments, cells were plated on 8-well Lab-tek 1 coverglass chamber (Nunc) at a seeding density of 20,000-50,000 cells per well, fixed and permeabilized with Methanol-Ethanol (1:1) solution at −20° C. for 6 min or fixed with PFA 4% in PBS for 10 min and then permeabilized with 0.1% v/v Triton X-100 (SIGMA) in PBS for 10 min at room temperature. […]
(§3) STORM imaging was carried out with a commercial STORM microscope system from Nikon Instruments (NSTORM). Laser light at 647 nm was used for exciting Alexa Fluor 647 (Invitrogen) and switching it to the dark state, and laser light at 405 nm was used for reactivating the Alexa Fluor 647 (Invitrogen) fluorescence via an activator dye (Alexa Fluor 405)—facilitated manner. […]

[2] = tested on: human fibroblast nuclei (hFb); test: STORM super-resolution imaging of H2B nanodomains / nucleosome clutches in TSA-treated human fibroblasts
Procedure: as §1
as §2, with “temperature. As the distribution of H2B was independent of the fixation and permeabilization protocols, Methanol-Ethanol (1:1) was preferred to minimize the handling of the sample.” for “temperature.”
For all H2B quantification experiments, primary rabbit polyclonal anti-H2B (ab1790) and the secondary donkey anti-rabbit labeled with Alexa Fluor 405-Alexa Fluor 647 (Invitrogen) pair dyes were used after in vitro characterization using mononucleosome, 12- and 24-nucleosome array labeling.
as §3

[3] = tested on: H3 acetylation in human fibroblast cells; test: STORM imaging of H3 acetylation in human fibroblasts before and after TSA; details: hFbs, 300 nM TSA 24 hours, STORM images
Procedure: as §1, §2, §3

SMILES: CC(/C=C/C(=O)NO)=C\[C@@H](C)C(=O)c1ccc(N(C)C)cc1 [TSA, Trichostatin A]
- percentage of H2B co-localized with H1 [1]: 42±6%
- distributions of number of localizations per nanodomain, nanodomain areas and nanodomain nnds vs hFbs ([2]; TSA-hFbs compared to hFbs, p<10^-3): shifted to lower values
- H2B nanodomain density in the nuclear periphery compared to the nuclear interior (enhancement) ([2]; TSA-hFbs, 300 nM TSA 24 hours (untreated hFbs ~25% higher)): ~10%
- median number of nucleosomes per clutch ([2]; hFbs treated with 300 nM TSA for 24 hours, converted from H2B localizations by in vitro calibration curve (untreated hFbs ~8)): ~2 nucleosomes
- H3 acetylation after TSA treatment [3]: large increase in H3 acetylation
